Measurements taken from patent publication US11535592B2, “Antimicrobial compounds, compositions, and method” (University of Kentucky Research Foundation, priority 2019, dated 2022).
Read-outs that look alike come from different tables or passages of the source. Blank lines part the entries; values can stand above or below the compound they belong to.

Experiments:
[1] = test system: Porphyromonas gingivalis 381; experiment: Antimicrobial screening by colorimetric WST-1 assay against P. gingivalis; assay type: cell-based; conditions: P. gingivalis 381, FIG. 2, read-out: growth inhibition
Description: (§1) The following bacterial strains were used in these studies: Porphyromonas gingivalis 381, Actinomyces naeslundii ATCC 49340, Streptococcus sanguinis ATCC 10556, Veillonella parvula ATCC 10790, Aggregatibacter actinomycetemcomitans JP2, and Fusobacterium nucleatum ATCC 25586. All bacterial strains were initially grown on blood agar plates (BBL, Becton Dickinson, Sparks, Md., USA) from a frozen stock and incubated in appropriate aerobic (for S. sanguinis) or anaerobic (for P. gingivalis, A. naeslundii, V. parvula, A. actinomycetemcomitans, and F. nucleatum) conditions at 37° C. for 24 h or 3 days, respectively. Then, a liquid culture was started for each strain in 3 mL of Brain Hearth infusion (BHI) broth alone or supplemented with 5 μg/mL of hemin and 1 μg/mL of menadione in the case of P. gingivalis. Overnight cultures were inoculated in fresh broth and allowed to reach logarithmic growth for 3-4 h, time at which antimicrobial activity of different treatments was evaluated.
Initial screening for testing the antimicrobial effect of zafirlukast derivatives (4a, 4b, 11a, 11b, 12a, 21a, 21b, 22a, 22b, 23a, and 23b) was performed using the colorimetric water-soluble tetrazolium-1 (WST-1) assay, which serves as a surrogate marker for cell proliferation and viability. Bacterial strains (10^6/well) grown logarithmically in broth (90 μL) using 96-wells plates, were exposed to different treatments for 2 h and then 15 μL of WST-1 reagent (Roche, Manheim, Germany) were added to each well. Plates were incubated for 2 h under appropriate culture conditions and then absorbance was measured at 450 nm, with a reference wavelength of 600 nm, using SpectraMax M2 plate reader (Molecular Devices, Sunnyvale, Calif., USA). The percentage of inhibitory effect (i.e., % growth inhibition) was calculated using the optical densities (ODs) of bacterial metabolic activity, under different experimental conditions according to the following formula: 100×[OD (control)−OD (experimental)/OD (control)]. For P. gingivalis, control cultures were treated only with medium and experimental cultures treated with DMSO (vehicle for zafirlukast and its derivatives) and 1 μg/mL of the antibiotic tetracycline. When tested against A. naeslundii, A. actinomycetemcomitans, S. sanguinis, V. parvula, and F. nucleatum control cultures were treated only with medium and experimental cultures were treated with DMSO (vehicle for zafirlukast and its derivatives), antibiotic penicillin/streptomycin −1× (100 U/mL of penicillin and 100 μg/mL of streptomycin) for Gram-positives and 1 μg/mL of tetracycline for Gram-negative anaerobic bacteria.

[2] = test system: OKF6 oral epithelial cells (OKF6/hTERT); experiment: cells; assay type: cell-based; conditions: 24 h; for IC50: Homo sapiens, OKF6; for Dead (%) / Percentage of OKF6 cells alive / Alive (%): human
Description: Cytotoxic effect of zafirlukast derivatives in oral epithelial cells. The immortalized oral keratinocyte cell line OKF6/hTERT (OKF6) was used for viability assays in response to zafirlukast derivatives 22b, 23a, and 23b as previously reported. 3, ^4 Cells were cultured in keratinocyte-serum free medium (SFM) supplemented with bovine pituitary extract (25 μg/mL) and recombinant epidermal growth factor (0.2 ng/mL) (Ker-SFM). Cells were maintained at 37° C. in a humidified incubator with 5% CO2.
[…] Cells were then harvested by trypsinization, washed with DMEM medium supplemented with 5% fetal bovine serum at 1100 rpm and resuspended in fresh Ker-SFM. Equal volumes of cell suspension and trypan blue were mixed and 10 μL evaluated in the automated cell counter (Countess II FL) (Life Technologies, Singapure) to determine percentage of alive and death cells. These experiments were performed in two independent experiments by duplicate. […] The IC50 values were calculated by using the Quest Graph™ IC50 calculator (ATT Bioquest, Inc, https://www.aatbio.com/tools/ic50-calculator).

[3] = test system: OKF6 oral epithelial cells (OKF6/hTERT); experiment: Cell viability of oral epithelial cells (apoptosis and necrosis) by flow cytometry, FITC-Annexin V / propidium iodide; assay type: cell-based, human; conditions: 24 h
Description: Cytotoxic effect of zafirlukast derivatives in oral epithelial cells. The immortalized oral keratinocyte cell line OKF6/hTERT (OKF6) was used for viability assays in response to zafirlukast derivatives 22b, 23a, and 23b as previously reported. 3, ^4 Cells were cultured in keratinocyte-serum free medium (SFM) supplemented with bovine pituitary extract (25 μg/mL) and recombinant epidermal growth factor (0.2 ng/mL) (Ker-SFM). Cells were maintained at 37° C. in a humidified incubator with 5% CO2. Cytotoxic effects of zafirlukast derivatives were confirmed by flow cytometry analysis (FACS). After different treatments, attached OKF6 cells were harvested by trypsinization and mixed with cells that were previously rescued from supernatants. Cells were washed with PBS at 1100 rpm for 5 min and further labeled with 5 μL of FITC-Annexin V and 5 μL of propidium iodide (BD Pharmingen, San Jose, Calif.) for 15 min at room temperature. Labeled cells were analyzed by FACS, with at least 10,000 events read at wavelengths averaging 488 nm for excitation and 530 nm for emission in a flow cytometer FACSCalibur (Becton Dickinson, San Jose, Calif.).

[4] = test system: Porphyromonas gingivalis 381; experiment: Bactericidal effect on P. gingivalis by colony forming units (CFU) assay; assay type: cell-based; conditions: 24 h exposure, 7 days incubation, FIG. 4; for bacteriostatic or bactericidal: 100 μM, CFU
Description: as §1
P. gingivalis (10^6/well) grown in appropriate medium and anaerobic conditions was exposed to zafirlukast derivatives dissolved in DMSO for 24 h and further 50 μL of bacterial culture dilutions (1:400) were spread onto blood agar plates. Numbers of CFUs were obtained after 7 days of incubation in appropriate anaerobic conditions.

[5] = 0-100 μM in triplicate, Quest Graph IC50 calculator, read-out: IC50 (OKF6 cell viability)

Structure (SMILES): Cn1cc(Cc2ccc(C(=O)NS(=O)(=O)c3ccccc3)cc2)c2ccccc21 [Compound 12a]
inhibition at 10 µM [1]: 90 to 100%

Structure (SMILES): COc1cc(C(=O)NS(=O)(=O)c2ccccc2C)ccc1Cc1cn(C)c2ccccc12 [Compound 4b]
inhibition at 100 µM [1]: > 60%

Dead (%) ([2]; 1 μM): 8.5 ± 1.7%
Percentage of OKF6 cells alive ([2]; 1 μM): 69.3 ± 9.6%
Percentage of OKF6 cells alive ([2]; 2.5 μM): 41.0 ± 1.0%
Percentage of OKF6 cells alive ([2]; 5 μM): 66.0 ± 5.6%
Alive (%) ([2]; 10 μM): 40.8 ± 16.6%
Dead (%) ([2]; 10 μM): 59.3 ± 16.6%
Percentage of OKF6 cells alive ([2]; 10 μM): 38.3 ± 4.9%
Percentage of OKF6 cells alive ([2]; 15 μM): 41.0 ± 17.3%
Percentage of OKF6 cells alive ([2]; 20 μM): 22.7 ± 11.7%
Percentage of OKF6 cells alive ([2]; 25 μM): 47.0 ± 20.0%
Percentage of OKF6 cells alive ([2]; 50 μM): 33.0 ± 15.1%
Percentage of OKF6 cells alive ([2]; 100 μM): 12.3 ± 11.0%
Structure (SMILES): COc1ccc(Cc2cn(C)c3ccccc23)cc1C(=O)NS(=O)(=O)c1ccccc1C [Compound 22b]
inhibition at 1 µM [1]: 15 to 40%
inhibition at 10 µM [1]: 90 to 100%
IC50 [2, 5]: 16 µM
Apoptosis (%) ([3]; human, 1 μM): 23.7 ± 16.6%
Necrosis (%) ([3]; human, 1 μM): 2.16 ± 1.62%
Viable ([3]; human, 1 μM): 74.1 ± 18.1%
Apoptosis (%) ([3]; human, 10 μM): 29.6 ± 19.1%
Necrosis (%) ([3]; human, 10 μM): 1.37 ± 0.39%
Viable ([3]; human, 10 μM): 69.1 ± 18.9%

Dead (%) ([2]; 1 μM): 20.5 ± 16.4%
Percentage of OKF6 cells alive ([2]; 1 μM): 68.0 ± 5.0%
Percentage of OKF6 cells alive ([2]; 2.5 μM): 70.7 ± 10.3%
Percentage of OKF6 cells alive ([2]; 5 μM): 55.3 ± 8.1%
Alive (%) ([2]; 10 μM): 73.8 ± 4.1%
Dead (%) ([2]; 10 μM): 26.3 ± 4.1%
Percentage of OKF6 cells alive ([2]; 10 μM): 49.0 ± 16.1%
Percentage of OKF6 cells alive ([2]; 15 μM): 50.3 ± 9.5%
Percentage of OKF6 cells alive ([2]; 20 μM): 48.0 ± 6.1%
Percentage of OKF6 cells alive ([2]; 25 μM): 54.0 ± 7.8%
Percentage of OKF6 cells alive ([2]; 50 μM): 45.3 ± 13.1%
Percentage of OKF6 cells alive ([2]; 100 μM): 15.7 ± 7.1%
Structure (SMILES): COc1ccc(Cc2cn(C)c3ccc([N+](=O)[O-])cc23)cc1C(=O)NS(=O)(=O)c1ccccc1 [Compound 23a]
inhibition at 1 µM [1]: 15 to 40%
inhibition at 10 µM [1]: 90 to 100%
bacteriostatic or bactericidal [4]: bactericidal
inhibition at 1 µM ([4]; Porphyromonas gingivalis, 381, 1 μM, read-out: growth inhibition (CFU)): ~60%
inhibition at 10 µM ([4]; Porphyromonas gingivalis, 381, 10 μM, read-out: growth inhibition (CFU)): 100%
IC50 [2, 5]: 54 µM
Apoptosis (%) ([3]; human, 1 μM): 38.5 ± 27.5%
Necrosis (%) ([3]; human, 1 μM): 0.69 ± 0.46%
Viable ([3]; human, 1 μM): 60.9 ± 27.4%
Apoptosis (%) ([3]; human, 10 μM): 44.2 ± 26.9%
Necrosis (%) ([3]; human, 10 μM): 2.81 ± 2.31%
Viable ([3]; human, 10 μM): 53.2 ± 29.0%

Structure (SMILES): COc1ccc(Cc2c[nH]c3ccccc23)cc1C(=O)NS(=O)(=O)c1ccccc1C [Compound 21b]
inhibition at 10 µM [1]: ~80%

Structure (SMILES): Cc1ccccc1S(=O)(=O)NC(=O)c1ccc(Cc2c[nH]c3ccccc23)cc1 [Compound 11b]
inhibition at 10 µM [1]: ~90%

Structure (SMILES): O=C(NS(=O)(=O)c1ccccc1)c1ccc(Cc2c[nH]c3ccccc23)cc1 [Compound 11a]
inhibition at 10 µM [1]: ~40%

Structure (SMILES): COc1cc(C(=O)NS(=O)(=O)c2ccccc2)ccc1Cc1cn(C)c2ccccc12 [Compound 4a]
inhibition at 100 µM [1]: > 60%

Structure (SMILES): COc1ccc(Cc2c[nH]c3ccccc23)cc1C(=O)NS(=O)(=O)c1ccccc1 [Compound 21a]
inhibition at 10 µM [1]: ~40%

Dead (%) ([2]; 1 μM): 17.3 ± 9.5%
Percentage of OKF6 cells alive ([2]; 1 μM): 83.7 ± 9.1%
Percentage of OKF6 cells alive ([2]; 2.5 μM): 87.7 ± 3.8%
Percentage of OKF6 cells alive ([2]; 5 μM): 87.0 ± 2.6%
Alive (%) ([2]; 10 μM): 48.3 ± 17.5%
Dead (%) ([2]; 10 μM): 51.8 ± 17.5%
Percentage of OKF6 cells alive ([2]; 10 μM): 83.0 ± 5.3%
Percentage of OKF6 cells alive ([2]; 15 μM): 79.0 ± 5.3%
Percentage of OKF6 cells alive ([2]; 20 μM): 75.3 ± 3.8%
Percentage of OKF6 cells alive ([2]; 25 μM): 77.0 ± 2.6%
Percentage of OKF6 cells alive ([2]; 50 μM): 69.0 ± 7.5%
Percentage of OKF6 cells alive ([2]; 100 μM): 58.7 ± 4.2%
Structure (SMILES): COc1ccc(Cc2cn(C)c3ccc([N+](=O)[O-])cc23)cc1C(=O)NS(=O)(=O)c1ccccc1C [Compound 23b]
inhibition at 1 µM [1]: 15 to 40%
inhibition at 10 µM [1]: 90 to 100%
bacteriostatic or bactericidal [4]: bactericidal
IC50 [2, 5]: > 100 µM
IC50 ([2]; estimated beyond the highest concentration tested (100 μM), read-out: IC50 (OKF6 cell viability), estimated): ~230 µM
Apoptosis (%) ([3]; human, 1 μM): 24.8 ± 13.9%
Necrosis (%) ([3]; human, 1 μM): 1.08 ± 0.17%
Viable ([3]; human, 1 μM): 74.4 ± 13.8%
Apoptosis (%) ([3]; human, 10 μM): 35.8 ± 21.3%
Necrosis (%) ([3]; human, 10 μM): 2.23 ± 1.18%
Viable ([3]; human, 10 μM): 61.7 ± 22.2%

Alive (%) ([2]; 25 μM): 17.3 ± 5.2%
Dead (%) ([2]; 25 μM): 82.8 ± 5.2%
Structure (SMILES): COc1cc(C(=O)NS(=O)(=O)c2ccccc2C)ccc1Cc1cn(C)c2ccc(NC(=O)OC3CCCC3)cc12 [Zafirlukast, zafirlukast, reference compound]
Apoptosis (%) ([3]; 25 μM, FACS (Table 3, FIG. 7)): 90.8 ± 2.5%
Necrosis (%) ([3]; 25 μM, FACS (Table 3, FIG. 7)): 0.65 ± 0.58%
Viable ([3]; 25 μM, FACS (Table 3, FIG. 7)): 8.53 ± 3.08%
